What follows are compounds tested against T1, Insulin Receptor Kinase (Homo sapiens, UniProt P06213) (assay: Insulin Kinase selectivity assay). Details: Table 4 kinase selectivity; read-out: IC50, Assay 13 Insulin Kinase.
T1 construct: consists of residues 941-1313 of the cytoplasmic domain of the beta-subunit of the human insulin receptor; purchased BIOMOL SE-195
Assay type: biochemical
Method: Assays to test compound inhibition of other kinases were preformed using methods that measure the amount of phosphorylation of a biotinylated peptide substrate. Biotinylated peptide substrates were selected from the literature as appropriate for the enzyme being evaluated. […] Assay conditions vary slightly for each protein kinase, for example, insulin receptor kinase requires 10 mM MnCl2 for activity and Calmodulin-dependent protein kinase requires calmodulin and 2 mM CaCl2. The reaction mixture was dispensed into the wells of a streptavidin coated Flashplate and 1 μl drug stock in 100% DMSO was added to a 100 μl reaction volume resulting in a final concentration of 1% DMSO in the reaction. Enzyme was diluted in 50 mM Tris-HCl pH=8.0, 0.1% BSA and added to each well. The reaction was incubated for one hour at 30° C. in the presence of compound. After one hour the reaction mix was aspirated from the plate and the plate was washed with PBS containing 100 mM EDTA. The plate was read on a scintillation counter to determine ^33P-γ-ATP incorporated into the immobilized peptide. Test compounds were assayed in duplicate at 8 concentrations [100 tM, 10 μM, 1 μM, 100 nM, 10 nM, 1 nM, 100 μM, 10 μM]. A maximum and minimum signal for the assay was determined on each plate. The IC50 was calculated from the dose response curve of the percent inhibition of the maximum signal in the assay according to the formula [max signal−background/test compound signal−background (100)=% inhibition] by graphing the percent inhibition against the log concentration of test compound. Known inhibitor compounds appropriate for the kinase being assayed were also included on each plate.
VEGF-R (vascular endothelial growth factor receptor-2) is a fusion protein containing a polyhistidine tag at the N-terminus followed by amino acids 786-1343 of the rat VEGF-R2 kinase domain (GenBank Accession #U93306). CDK1 (cyclin dependent kinase 1) is isolated from insect cells expressing both the human CDK1 catalytic subunit and its positive regulatory subunit cyclin B (New England Biolabs, Beverly, Mass., Cat. #6020). CDK4 (cyclin dependent kinase 4) contains amino acids 769 to 921 of the mouse […] protein found in the GST-retinoblastoma protein construct (Santa Cruz Biotechnology, Santa Cruz, Calif.; Cat. #SC-4112). Insulin Receptor Kinase consists of residues 941-1313 of the cytoplasmic domain of the beta-subunit of the human insulin receptor (BIOMOL, Plymouth Meeting, Pa., Cat. #SE-195). Protein Kinase A is the catalytic subunit of cAMP dependent protein kinase-A purified from bovine heart (Upstate Biotech, Lake Placid, N.Y., Cat#14-114). PKC (protein kinase-C) is the gamma or beta isoform of the human protein produced in insect cells (BIOMOL, Plymouth Meeting, Pa., Cat. #SE-143). Casein Kinase 1 is a truncation at amino acid 318 of the C-terminal portion of the rat CK1 delta isoform produced in E.coli (New England Biolabs, Beverly, Mass., Cat. #6030). Casein Kinase 2 includes the alpha and beta subunits of the human CK2 protein produced in E.coli (New England Biolabs, Beverly, Mass., Cat. #6010). Calmodulin Kinase (calmodulin-dependent protein kinase 2) is a truncated version of the alpha subunit of the rat protein produced in insect cells (New England Biolabs, Beverly, Mass., Cat. #6060). Glycogen Synthase Kinase-3 is the beta isoform of the rabbit enzyme produced in E. coli (New England Biolabs, Beverly, Mass., Cat. #6040). MAP Kinase is the rat ERK-2 isoform containing a polyhistidine tag at the N-terminus produced in E. coli. and activated by phosphorylation with MEK1 prior to purification (BIOMOL, Plymouth Meeting, Pa., Cat. #SE-137). EGFR (epidermal growth factor receptor) is purified from human A431 cell membranes (Sigma, St. Louis, Mo., Cat.# E3641). PDGF-R (platelet derived growth factor receptor) is a fusion protein containing a polyhistidine tag at the N-terminus followed by nucleotides 1874-3507 of the human PDGF-R beta subunit kinase domain (Accession #M21616). […]

T1 sequence (P06213 980-1352): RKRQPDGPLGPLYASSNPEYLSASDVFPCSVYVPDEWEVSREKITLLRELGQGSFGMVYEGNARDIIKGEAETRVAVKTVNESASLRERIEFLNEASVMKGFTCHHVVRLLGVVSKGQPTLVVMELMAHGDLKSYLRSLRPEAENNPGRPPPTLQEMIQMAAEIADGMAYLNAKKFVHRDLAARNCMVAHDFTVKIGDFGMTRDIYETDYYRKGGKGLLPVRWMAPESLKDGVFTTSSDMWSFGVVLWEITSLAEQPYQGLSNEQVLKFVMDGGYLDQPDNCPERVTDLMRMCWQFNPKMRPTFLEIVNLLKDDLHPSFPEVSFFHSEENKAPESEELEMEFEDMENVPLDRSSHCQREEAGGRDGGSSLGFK

IC50 [µM] | Compound
1.69 | OCCCNc1cncc(-c2cncc(Nc3cccc(Cl)c3)n2)c1 [Cmd 4]
> 100 | OCCCCNc1cncc(-c2cncc(Nc3cccc(Cl)c3)n2)c1 [Cmd 32]
> 100 | CN(C)CCNc1cncc(-c2cncc(Nc3cccc(Cl)c3)n2)c1 [Cmd 33, N′-[5-[6-[(3-chlorophenyl)amino]pyrazinyl]-3-pyridinyl]-N^2,N^2-dimethyl-1,2-ethanediamine]
> 100 | Clc1cccc(Nc2cncc(-c3cncc(NCCCc4ccncc4)c3)n2)c1 [Cmd 71]
> 100 | Clc1cccc(Nc2cncc(-c3cncc(NCCCc4cccnc4)c3)n2)c1 [Cmd 72]
> 100 | Clc1cccc(Nc2cncc(-c3cncc(NCCCN4CCCCC4)c3)n2)c1 [Cmd 73]
> 100 | Clc1cccc(Nc2cncc(-c3cncc(NCCCn4cccn4)c3)n2)c1 [Cmd 75]
> 100 | Clc1cccc(Nc2cncc(-c3cncc(NCCCn4cncn4)c3)n2)c1 [Cmd 76]

Compound | IC50 [µM]
CN(C)CCCNc1cncc(-c2cncc(Nc3cccc(Cl)c3)n2)c1 [Cmd 35] | > 100
O=C(NCCCO)c1cncc(-c2cncc(Nc3cccc(Cl)c3)n2)c1 [Cmd 39] | 1.8

— patent publication US6710048B2, “Pyrazine derivatives as modulators of tyrosine kinases” (Ortho-McNeil Pharmaceutical, Inc., priority 2000, dated 2004)
